Results taken from article PMC7363885, “Fluorescent artificial receptor-based membrane assay (FARMA) for spatiotemporally resolved monitoring of biomembrane permeability” (Communications Biology, 2020).
“Also recorded” adds a separate entry of the source. Read-outs that look alike come from different tables or passages of the source.

Legend:
[1] = FARMA: permeation of analytes into FAR-loaded liposomes (fluorescence, cuvette or stopped-flow); conditions: FARMA with FAR-loaded liposomes or GUVs
FAR-1 = assay: Fluorescence titration, FAR•analyte complex formation in homogeneous solution; assay type: binding; conditions: FAR-1; 10 mM HEPES buffer (pH 7); 1:1 binding model; error estimate ≤ 20%
[2] = Dye displacement membrane assay (liposome-encapsulated host•dye ensembles); conditions: dye displacement, CB7•BE-, CB8•MV•5OH-Trp- or CB8•MV•2,6-ANS-loaded liposomes
Excerpt: Supplementary Figure 13 | Graphical representation of membrane assays using dye displacement for signaling. Diffusion of analytes through a lipid membrane is detected by displacement of the dye from (a) a host•dye or (b) a host•dye•quencher complex, leading to reduction or enhancement in emission intensity.
Supplementary Figure 14 | Membrane permeation monitoring of analytes by dye displacement. (a) Time-resolved changes in fluorescence intensity of CB7•BE-loaded liposomes (λexc = 347 nm, λobs = 500 nm) upon addition of the membrane-permeable analyte tyramine and membrane destabilizing peptide melittin.
(b) Evolution of fluorescence intensity after addition of dimethylbenzylamine (DMBA) to CB7•PAL-loaded liposomes (λexc = 347 nm, λobs = 500 nm). (c) Fluorescence response after addition of the […]
tryptophan to liposomes loaded with CB8•MV•2,6-ANS (λexc = 380 nm, λobs = 463 nm). […]
Combing equations S1 and S2, one arrives at Papp = kp∙(r/3) = kobs/canalyte∙cFAR∙(r/3) (equation 1 in main text)
Dye displacement membrane assay
Dye displacement membrane assays rely on selective encapsulation of reporter pairs inside liposomes and the reversible interaction between the receptor and the translocated analyte. To conduct the assay, liposomes containing the chemosensing ensemble composed of a macrocyclic host and a dye are prepared and purified, such that a subsequently added analyte affects the dye fluorescence only if it can enter the vesicle and displaces the dye from the macrocycle. Until now, only the dye displacement has been used as the signaling mechanism for tandem membrane assays,3, 4 whereby the competitive displacement of the dye from such host•dye complexes upon analyte addition restores the fluorescence features of the dye in solution, Supplementary Figures 13 - 14.
Specifically, this signaling mechanism has been mostly employed with macrocyclic host s with cavity space that is capable o f forming 1:1 complex es, e.g., cucurbit[7]uril (CB7) and the dyes berberine (BER) or palmatine (PAL), see Supplementary Figure 13a, or with p-sulfonato calix[4]arene (CX4) and lucigenin.3,4 Expanding the repertoire of chemosensors for tandem membrane assay s, we exploit herein also the ability of a larger macrocyclic host such as cucurbit[8]uril (CB8) to form 1:1:1 ternary complexes,5-7 and utilize here the quencher methyl viologen (MV) in combination with the fluorescent dyes 5-hydroxy tryptophan (5HO-Trp), 2-anilinonaphthalene -6-sulfonic acid (2,6-ANS) or dapoxyl sulfonic acid, sodium salt (DapoxS), Supplementary Figure 13b. Upon addition of an analyte, the fluorescent dye, the quencher or both the fluorescent dye and quencher are displaced from the CB8 cavity, which in each case is reflected by an increase in the emission intensity of the dye (switch -on displacement assay), Supplementary Figures 14- […]
The dye displacement signal strategy has two important disadvantages compared to the preferred fluorescent artificial receptor (FAR) assays:
(i) The dye displacement strategy is limited to strongly binding analytes, i.e., K(analyte) ≥ K(dye), otherwise a large excess concentration of analyte is needed to generate significant

Caco-2 = conditions: no passive permeation but active transport; cited from earlier work
[3] = End-point analysis/EPC liposomes; cited from earlier work
[4] = Aliquot analysis/flat lipid bilayer (macroscopic bilayer of brain phospholipids); cited from earlier work
[5] = Fluorescence quenching; cited from earlier work
[6] = PAMPA; cited from earlier work

Compound | membrane permeability (in words) [1] | membrane permeability (in words) ([1]; listed as tryptophan) | Ka (FAR-1) | membrane permeability (in words) [2] | Papp Literature (Caco-2) | Papp Literature [3] | Papp Literature [4] | Papp Literature [5] | Papp Literature [6]
N[C@@H](Cc1c[nH]c2ccccc12)C(=O)O [Trp, tryptophan] | no permeation | non-permeating | 150 10^3 M−1 | impermeable | 1.0 10^−6 cm s^−1 | 0.00041 ×10⁻⁶ cm/s |  |  | 
NCCc1c[nH]c2ccccc12 [Tryptamine, tryptamine] | slow permeation; also recorded: pass the membrane within several minutes to hours |  | 50 10^3 M−1 | slowly membrane permeable |  |  | 6.7 10^−6 cm s^−1 | 0.33 10^−6 cm s^−1 | 5.4 10^−6 cm s^−1
